# Measurements as given in patent publication US20020137929A1, “1 - (3-heterocyclylphenyl) isothiourea, -isourea, -guanidine and -amidine herbicidal agents” (Intellectual Property Department, BASF Aktiengesellschaft, priority 1998, published 2002).
# Legend:
# CASOB (Sicklepod) [1] = test: Preemergence herbicidal evaluation; assay type: in vivo, Cassia obtusifolia; details: rated 4-5 weeks after treatment
# How it was run: (§1)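 In this greenhouse assay, monocot and dicot seeds are planted in soil and treated prior to emergence with an aqueous acetone spray (about 0.0156-0.500 kg/ha). Plants are assessed visually against control on a 0-9 scale after 4-5 weeks.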
# [2] = tested on: CHEAL (Lambsquarters, Common); test: Preemergence herbicidal evaluation; assay type: in vivo, Chenopodium album; details: rated 4-5 weeks after treatment
# How it was run: as §1
# ECHCG (Barnyardgrass) = test: Postemergence herbicidal evaluation; assay type: in vivo, Echinochloa crus-galli; details: postemergence
# How it was run: (§2)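 Two-week-old seedlings sprayed with compound in 50/50 acetone/water plus 0.5% TWEEN 20, at about 0.0156 to 0.500 kg/ha, nozzle at 40 psi. Kept in greenhouse; rated visually 4-5 weeks after treatment on a 0-9 scale versus control, repeat tests averaged.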
# ORYSAT (Rice, Tebonnet) = test: Preemergence herbicidal evaluation; assay type: in vivo, Oryza sativa, (L.) Tebonnet; details: rated 4-5 weeks after treatment
# How it was run: as §1
# CASOB (Sicklepod) [3] = test: Postemergence herbicidal evaluation; assay type: in vivo, Cassia obtusifolia; details: postemergence
# How it was run: as §2
# [4] = tested on: GLXMAW (Soybean, Williams); test: Postemergence herbicidal evaluation; assay type: in vivo, Glycine max, (L.) Merr. cv Williams; details: postemergence
# How it was run: as §2
# AMBEL (Ragweed, Common) [5] = test: Postemergence herbicidal evaluation; assay type: in vivo, Ambrosia artemisifolia; details: postemergence
# How it was run: as §2
# [6] = tested on: IPOHE (Morningglory, Ivyleaf); test: Preemergence herbicidal evaluation; assay type: in vivo, Ipomoea hederacea; details: rated 4-5 weeks after treatment
# How it was run: as §1
# [7] = tested on: GLXMAW (Soybean, Williams); test: Preemergence herbicidal evaluation; assay type: in vivo, Glycine max, (L.) Merr. cv Williams; details: rated 4-5 weeks after treatment
# How it was run: as §1
# [8] = tested on: CHEAL (Lambsquarters, Common); test: Postemergence herbicidal evaluation; assay type: in vivo, Chenopodium album; details: postemergence
# How it was run: as §2
# [9] = tested on: TRZAWR (Wheat, Winter, cv Riband); test: Postemergence herbicidal evaluation; assay type: in vivo, Triticum aestivum; details: postemergence
# How it was run: as §2
# [10] = tested on: IPOHE (Morningglory, Ivyleaf); test: Postemergence herbicidal evaluation; assay type: in vivo, Ipomoea hederacea; details: postemergence
# How it was run: as §2
# [11] = tested on: SAGPY (Arrowhead (Pygmaea)); test: Preemergence weed control under flooded paddy conditions; assay type: in vivo, Sagittaria pygmaea; details: rated 3-4 weeks after treatment
# How it was run: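 Visual injury scored 0-9 against control three to four weeks post-treatment, greenhouse-grown. Application: acetone/water (50/50) solutions dosed directly into flood water (1.5-3 cm over silt loam, planted top 0.5 cm), roughly 0.0313 to 0.500 kg/ha active ingredient.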
# AMBEL (Ragweed, Common) [12] = test: Preemergence herbicidal evaluation; assay type: in vivo, Ambrosia artemisifolia; details: rated 4-5 weeks after treatment
# How it was run: as §1
# ABUTH (Velvetleaf) = test: Preemergence herbicidal evaluation; assay type: in vivo, Abutilon theophrasti; details: rated 4-5 weeks after treatment
# How it was run: as §1
smiles,measurement,setting,value
"COC(=O)[C@H](Cc1ccc([N+](=O)[O-])cc1)N1C(=O)CSC1=Nc1cc(-n2c(=O)cc(C(F)(F)F)n(C)c2=O)c(F)cc1Cl [Compound 78, Methyl 2-{{2-chloro-5-[3,6-dihydro-3-methyl-2,6-dioxo-4-(trifluoromethyl)-1(2H)-pyrimidinyl]-4-fluorophenyl}imino}-4-oxo-α-(p-nitrobenzyl)-3-thiazolidineacetate, L-]",Preemergence herbicidal rating CASOB,CASOB (Sicklepod) [1]; rate 0.0313 kg/ha,0.0
same,Preemergence herbicidal rating CASOB,CASOB (Sicklepod) [1]; rate 0.0625 kg/ha,0.0
same,Preemergence herbicidal rating CASOB,CASOB (Sicklepod) [1]; rate 0.1250 kg/ha,0.0
same,Preemergence herbicidal rating CASOB,CASOB (Sicklepod) [1]; rate 0.2500 kg/ha,1.0
same,Preemergence herbicidal rating CHEAL,[2]; rate 0.0156 kg/ha,9.0
same,Preemergence herbicidal rating CHEAL,[2]; rate 0.0313 kg/ha,9.0
same,Preemergence herbicidal rating CHEAL,[2]; rate 0.0625 kg/ha,9.0
same,Preemergence herbicidal rating CHEAL,[2]; rate 0.1250 kg/ha,9.0
same,Preemergence herbicidal rating CHEAL,[2]; rate 0.2500 kg/ha,9.0
same,ECHCG herbicidal rating,ECHCG (Barnyardgrass); rate 0.0158 kg/ha,1.0
same,ECHCG herbicidal rating,ECHCG (Barnyardgrass); rate 0.0315 kg/ha,1.0
same,ECHCG herbicidal rating,ECHCG (Barnyardgrass); rate 0.0630 kg/ha,1.0
same,Preemergence herbicidal rating ORYSAT,"ORYSAT (Rice, Tebonnet); rate 0.0156 kg/ha",0.0
same,Preemergence herbicidal rating ORYSAT,"ORYSAT (Rice, Tebonnet); rate 0.0313 kg/ha",0.0
same,Preemergence herbicidal rating ORYSAT,"ORYSAT (Rice, Tebonnet); rate 0.0625 kg/ha",0.0
same,Preemergence herbicidal rating ORYSAT,"ORYSAT (Rice, Tebonnet); rate 0.1250 kg/ha",0.0
same,Preemergence herbicidal rating ORYSAT,"ORYSAT (Rice, Tebonnet); rate 0.2500 kg/ha",0.0
same,CASOB herbicidal rating,CASOB (Sicklepod) [3]; rate 0.0158 kg/ha,1.0
same,CASOB herbicidal rating,CASOB (Sicklepod) [3]; rate 0.0315 kg/ha,1.0
same,CASOB herbicidal rating,CASOB (Sicklepod) [3]; rate 0.0630 kg/ha,3.0
same,GLXMAW herbicidal rating,[4]; rate 0.0158 kg/ha,4.0
same,GLXMAW herbicidal rating,[4]; rate 0.0315 kg/ha,4.5
same,GLXMAW herbicidal rating,[4]; rate 0.0630 kg/ha,5.5
same,AMBEL herbicidal rating,"AMBEL (Ragweed, Common) [5]; rate 0.0158 kg/ha",7.0
same,AMBEL herbicidal rating,"AMBEL (Ragweed, Common) [5]; rate 0.0315 kg/ha",7.0
same,AMBEL herbicidal rating,"AMBEL (Ragweed, Common) [5]; rate 0.0630 kg/ha",9.0
same,Preemergence herbicidal rating IPOHE,[6]; rate 0.0156 kg/ha,0.0
same,Preemergence herbicidal rating IPOHE,[6]; rate 0.0313 kg/ha,0.0
same,Preemergence herbicidal rating IPOHE,[6]; rate 0.0625 kg/ha,0.0
same,Preemergence herbicidal rating IPOHE,[6]; rate 0.1250 kg/ha,0.0
same,Preemergence herbicidal rating IPOHE,[6]; rate 0.2500 kg/ha,3.0
same,Preemergence herbicidal rating GLXMAW,[7]; rate 0.0156 kg/ha,1.0
same,Preemergence herbicidal rating GLXMAW,[7]; rate 0.0313 kg/ha,0.0
same,Preemergence herbicidal rating GLXMAW,[7]; rate 0.0625 kg/ha,0.0
same,Preemergence herbicidal rating GLXMAW,[7]; rate 0.1250 kg/ha,0.0
same,Preemergence herbicidal rating GLXMAW,[7]; rate 0.2500 kg/ha,1.0
same,CHEAL herbicidal rating,[8]; rate 0.0158 kg/ha,9.0
same,CHEAL herbicidal rating,[8]; rate 0.0315 kg/ha,9.0
same,CHEAL herbicidal rating,[8]; rate 0.0630 kg/ha,9.0
same,TRZAWR herbicidal rating,[9]; rate 0.0158 kg/ha,3.0
same,TRZAWR herbicidal rating,[9]; rate 0.0315 kg/ha,3.5
same,TRZAWR herbicidal rating,[9]; rate 0.0630 kg/ha,3.5
same,IPOHE herbicidal rating,[10]; rate 0.0158 kg/ha,9.0
same,IPOHE herbicidal rating,[10]; rate 0.0315 kg/ha,9.0
same,IPOHE herbicidal rating,[10]; rate 0.0630 kg/ha,9.0
same,SAGPY herbicidal effect rating,[11]; 0.0313 kg/ha,0.0
same,SAGPY herbicidal effect rating,[11]; 0.0625 kg/ha,0.0
same,SAGPY herbicidal effect rating,[11]; 0.1250 kg/ha,2.0
same,SAGPY herbicidal effect rating,[11]; 0.2500 kg/ha,4.0
same,Preemergence herbicidal rating AMBEL,"AMBEL (Ragweed, Common) [12]; rate 0.0156 kg/ha",0.0
same,Preemergence herbicidal rating AMBEL,"AMBEL (Ragweed, Common) [12]; rate 0.0313 kg/ha",0.0
same,Preemergence herbicidal rating AMBEL,"AMBEL (Ragweed, Common) [12]; rate 0.0625 kg/ha",0.0
same,Preemergence herbicidal rating AMBEL,"AMBEL (Ragweed, Common) [12]; rate 0.1250 kg/ha",1.0
same,Preemergence herbicidal rating AMBEL,"AMBEL (Ragweed, Common) [12]; rate 0.2500 kg/ha",1.0
same,Preemergence herbicidal rating ABUTH,ABUTH (Velvetleaf); rate 0.0156 kg/ha,0.0
same,Preemergence herbicidal rating ABUTH,ABUTH (Velvetleaf); rate 0.0313 kg/ha,0.0
same,Preemergence herbicidal rating ABUTH,ABUTH (Velvetleaf); rate 0.0625 kg/ha,0.0
same,Preemergence herbicidal rating ABUTH,ABUTH (Velvetleaf); rate 0.1250 kg/ha,2.0
same,Preemergence herbicidal rating ABUTH,ABUTH (Velvetleaf); rate 0.2500 kg/ha,9.0
